Source: ChEMBL document CHEMBL1130222, “Induction of the estrogen specific mitogenic response of MCF-7 cells by selected analogues of estradiol-17 beta: a 3D QSAR study” (J Med Chem, 1997)
pEC50: −log10 of the molar value.

Key:
MCF7 = experiment: cells; details: Homo sapiens
Description: Growth response in cultures of MCF-7 (human breast cancer cell line) cells

[1] = molecular target: Estrogen receptor (Homo sapiens) (UniProt Q92731+P03372)
Description: Estrogen receptor (ER) binding affinity

Row | Structure (SMILES) | pEC50 (MCF7) | Ka [1] [M⁻¹]
1 | C[C@]12CC[C@@H]3c4ccc([N+](=O)[O-])cc4CCC3[C@@H]1CC[C@@H]2O (single isomer, unassigned) | 8.67 | 7.77e+06
2 | C[C@]12CC[C@@H]3c4ccc(O)c([N+](=O)[O-])c4CCC3[C@@H]1CC[C@@H]2O (single isomer, unassigned) | 9.05 | 1.44e+08
3 | C[C@]12CC[C@@H]3c4ccc(O)cc4C=C[C@@H]3[C@@H]1CC[C@@H]2O | 11.38 | –
4 | C[C@]12C[C@H](O)[C@@H]3c4ccc(O)cc4CCC3[C@@H]1CC[C@@H]2O (single isomer, unassigned) | 10.79 | 6.22e+07
5 | C[C@]12CC[C@@H]3c4ccc(O)cc4[C@H](O)CC3[C@@H]1CC[C@@H]2O (single isomer, unassigned) | 10.24 | 7e+07
6 | C[C@@]12CCC[C@H]1C1CCc3cc(O)ccc3[C@H]1CC2 (single isomer, unassigned) | 9.93 | 2.93e+09
7 | C[C@]12CC[C@@H]3c4cc([N+](=O)[O-])ccc4CCC3[C@@H]1CC[C@@H]2O (single isomer, unassigned) | 7.53 | < 1.85e+06
8 | C[C@]12CC[C@@H]3c4c(O)cccc4CCC3[C@@H]1CC[C@@H]2O (single isomer, unassigned) | 8.80 | 1.8e+07
9 | C[C@]12CC[C@@H]3c4c(cccc4[N+](=O)[O-])CCC3[C@@H]1CC[C@@H]2O (single isomer, unassigned) | 7.22 | < 1.85e+06
10 | C[C@]12CC[C@@H]3c4cc([N+](=O)[O-])c(O)cc4CCC3[C@@H]1CC[C@@H]2O (single isomer, unassigned) | 7.47 | 3.7e+06
11 | C[C@]12CCc3c(ccc4cc(O)ccc34)[C@@H]1CC[C@@H]2O | 10.90 | 1.52e+09
12 | C[C@]12CC(=O)[C@@H]3c4ccc(O)cc4CCC3[C@@H]1CC[C@@H]2O (single isomer, unassigned) | 8.05 | 3.33e+06
13 | C[C@]12CC[C@@H]3c4ccc(O)cc4CCC3[C@@H]1C[C@@H](O)C2 (single isomer, unassigned) | 9.63 | 2.97e+09
14 | C[C@]12CC[C@@H]3c4cc(I)ccc4CCC3[C@@H]1CC[C@@H]2O (single isomer, unassigned) | 8.77 | 3.33e+06
15 | C[C@]12CC[C@@H]3c4ccc(O)cc4CCC3[C@@H]1C[C@@H](O)[C@@H]2O (single isomer, unassigned) [ESTRIOL] | 10.32 | –
16 | C[C@]12CC[C@@H]3c4ccc(O)c(N)c4CCC3[C@@H]1CC[C@@H]2O (single isomer, unassigned) | 9.46 | 2.11e+08
17 | C[C@]12CC[C@@H]3c4ccc(N)cc4CCC3[C@@H]1CC[C@@H]2O (single isomer, unassigned) | 8.82 | 2.78e+11
18 | C[C@@]12CCC[C@H]1C1CCc3ccccc3[C@H]1CC2 (single isomer, unassigned) | 6.70 | < 1.8e+06
19 | C[C@]12CC[C@@H]3c4c(N)cccc4CCC3[C@@H]1CC[C@@H]2O (single isomer, unassigned) | 7.55 | < 1.85e+06

Row | Structure (SMILES) | pEC50 (MCF7) | Ka [1] [M⁻¹]
20 | C[C@]12CC[C@@H]3c4ccc(O)cc4C[C@@H](O)C3[C@@H]1CC[C@@H]2O (single isomer, unassigned) | 9.82 | 6.3e+07
21 | C[C@]12CC[C@@H]3c4cccc(N)c4CCC3[C@@H]1CC[C@@H]2O (single isomer, unassigned) | 8.70 | 2.15e+07
22 | C[C@]12CC[C@H](O)C[C@@H]1CCC1[C@@H]2CC[C@]2(C)[C@@H](O)CC[C@@H]12 (single isomer, unassigned) [ANDROSTANEDIOL] | 8.33 | 1.8e+07
23 | C[C@]12CC[C@@H]3c4cccc([N+](=O)[O-])c4CCC3[C@@H]1CC[C@@H]2O (single isomer, unassigned) | 7.47 | < 1.85e+06
24 | C[C@]12CC[C@@H]3c4ccc(O)cc4[C@@H](O)CC3[C@@H]1CC[C@@H]2O (single isomer, unassigned) | 9.73 | 8.88e+07
25 | C[C@]12CC[C@@H]3c4cc(N)ccc4CCC3[C@@H]1CC[C@@H]2O (single isomer, unassigned) | 9.90 | 1.45e+08
26 | C[C@]12CC[C@@H]3c4cccc(I)c4CCC3[C@@H]1CC[C@@H]2O (single isomer, unassigned) | 8.78 | 4.44e+06
27 | C[C@]12CC[C@@H](O)C[C@@H]1CCC1[C@@H]2CC[C@]2(C)[C@@H](O)CC[C@@H]12 (single isomer, unassigned) [ANDROSTANDIOL] | < 5.00 | < 1.85e+06
28 | C[C@]12C[C@@H](O)[C@@H]3c4ccc(O)cc4CCC3[C@@H]1CC[C@@H]2O (single isomer, unassigned) | 10.44 | 1.15e+07
29 | C[C@]12CC[C@@H]3c4cc(O)ccc4CCC3[C@@H]1CC[C@@H]2O (single isomer, unassigned) | 10.48 | 2.6e+09
30 | C[C@]12CC[C@@H]3c4ccc(O)cc4C(=O)CC3[C@@H]1CC[C@@H]2O (single isomer, unassigned) | 11.47 | 1.09e+09
31 | C[C@]12CC[C@@H]3c4cccc(O)c4CCC3[C@@H]1CC[C@@H]2O (single isomer, unassigned) | 8.32 | 2.5e+08
32 | C[C@]12CC[C@H]3[C@H](CC=C4C[C@@H](O)CC[C@@]43C)[C@@H]1CC[C@@H]2O | 8.85 | 2.7e+07
33 | C[C@]12CC[C@@H]3c4ccc(O)cc4CC(=O)C3[C@@H]1CC[C@@H]2O (single isomer, unassigned) | 10.80 | 3.39e+09
34 | C[C@]12CC[C@@H]3c4ccccc4CCC3[C@@H]1CC[C@@H]2O (single isomer, unassigned) | 9.50 | 4.1e+08
35 | C[C@]12CC[C@H]3C(=CCc4cc(O)ccc43)[C@@H]1CC[C@@H]2O | 11.81 | –
36 | C[C@]12CC[C@@H]3c4ccc(I)cc4CCC3[C@@H]1CC[C@@H]2O (single isomer, unassigned) | 9.76 | 1.96e+07
37 | C[C@]12CC[C@@H]3c4cc(N)c(O)cc4CCC3[C@@H]1CC[C@@H]2O (single isomer, unassigned) | 9.25 | 1.33e+08
38 | C[C@]12CC[C@@H]3c4ccc(O)cc4C[C@H](O)C3[C@@H]1CC[C@@H]2O (single isomer, unassigned) | 10.91 | 3.66e+09
